By Ki is commonly meant a measure of affinity in units of concentration, obtained from inhibition or displacement. Low readings indicate a stronger hold on the target, high ones a looser hold on the target.

“Also recorded” adds a separate entry of the source.

The values that follow come from patent publication US9144573B2, “Prostaglandin transporter inhibitors” (Albert Einstein College of Medicine of Yeshiva University, priority 2006, dated 2015).

The subject of series [1] is MDCK cells. It counts as cell-based, Canine. The protocol:
We used TGBz T34 to further isolate the efflux process of PGE2. […] The intracellular concentrations of PGE2 at different time points were calculated by dividing the total amount of intracellular PGE2 on the dish by the total volume of cells, based on cell number counts and published individual cell volume (Schneider et al., 2000; Hill et al., 2004). Since the addition of inhibitor involved removing extracellular tracer PGE2, the intracellular PGE2 concentration at the point of inhibitor addition approximates the outwardly-directed PGE2 gradient.
This linearity held true even when the intracellular PGE2 concentration was extended to almost 800 nM, i.e. 10 fold the Km of PGT for PGE2 (data not shown). From the slope of the relationship, we generated a range of permeability coefficients for PGE2 efflux of 1.2 to 5.3×10^−6 cm/sec, based on the range of MDCK cell volumes reported in the literature (Schneider et al., 2000; Hill et al., 2004). […] The ratio of the influx-to-efflux permeability coefficients was thus in the range 2.7 to 117.

The target of series [2] is T1, prostaglandin transporter (PGT) (Rattus norvegicus, UniProt Q00910).
T1 construct: GFP; expressed in transfected cells
Briefly: PGE2 uptake by MDCK cells stably expressing PGT. It counts as cell-based. The following applies: for inhibition at 5 µM: MDCK, read-out: % Inhib. at 5 μM. The protocol: MDCK or 3T3 cells were seeded at 15-20% confluence on 24-well plates. The day on which the cells were seeded was considered day 1. PGE2 uptake experiments were conducted on day 4. All of the PGE2 uptake experiments were conducted at room temperature. On day 4, cells were washed twice with Waymouth buffer (135 mM NaCl, 13 mM H-Hepes, 13 mM Na-Hepes, 2.5 mM CaCl2, 1.2 mM MgCl2, 0.8 mM MgSO4, 5 mM KCl, and 28 mM D-glucose). Then 200 μL of Waymouth buffer containing [^3H]PGE2 was added to each well. At the designated time, the uptake of [^3H]PGE2 was stopped by aspiration of uptake buffer; this was followed by immediate washing twice with 500 μL of chilled Waymouth buffer. Cells were then lysed with 100 μL lysis buffer containing 0.25% SDS and 0.05 N NaOH. 1.5 mL of scintillation solution was added to each well, and intracellular [^3H]PGE2 was counted by MicroBeta Counter.
For preliminary screening of the compounds, 25 μL of Waymouth buffer containing small organic compounds were added to each well; this was immediately followed by the addition of 175 μL of Waymouth buffer containing [^3H]PGE2. In each well, the total volume of uptake medium was 200 μL. Organic compounds were first dissolved in DMSO and then diluted in Waymouth buffer. The percent inhibition of [^3H]PGE2 uptake by compounds was calculated as [(uptakevehicle−uptakeinhibitor)÷(uptakevehicle)]×100.
The initial velocities at various initial extracellular concentrations of PGE2 were determined from the PGE2 uptake in the first 2 minutes; these were linear over the time course of PGE2 uptake. Ki values were obtained by curve fitting the reciprocal of initial velocities of PGE2 uptake versus the reciprocal of extracellular PGE2 concentrations at various concentrations of the inhibitors. At low PGE2 concentrations, the extracellular concentrations were taken as ^3H labeled PGE2, which has a specific activity of 500 μCi/mol. At high concentrations of PGE2, a mixture of ^3H labeled and unlabeled PGE2 was made to a final specific activity of 25 μCi/mol.

[3] abbreviates: Table 1, PGE2 uptake, MDCK cells expressing PGT.

In the case of `CCCCC[C@H](O)/C=C/[C@H]1[C@H](O)CC(=O)[C@@H]1C/C=C\CCCC(=O)O` [PGE2, prostaglandin E2], in series [1], the “permeability coefficient for PGE2 efflux” value was 1.2-5.3 ×10^−6 cm/sec, the “permeability coefficient for PGE2 influx (by simple diffusion)” value amounted to 0.45 ×10⁻⁶ cm/s and the “ratio of the influx-to-efflux permeability coefficients” value was 2.7-117.

As for `CCCNc1nc(NCCOCCOCCNC(=O)c2ccccc2)nc(Nc2ccc(C(=O)NCCOCCOCCN=[N+]=[N-])cc2)n1` [T03A], in series [2], the inhibition at 5 µM came to 54%.

With `CCCCCCCNc1nc(NCCOCCOCCNC(=O)c2ccccc2)nc(Nc2ccc(C(=O)NCCOCCOCCN=[N+]=[N-])cc2)n1` [T07A], the inhibition at 5 µM in series [2] was found to be 74%.

Consider `CC(C)CCNc1nc(NCCOCCOCCNC(=O)c2ccccc2)nc(Nc2ccc(C(=O)NCCOCCOCCN=[N+]=[N-])cc2)n1` [T08A], for which the inhibition at 5 µM in series [2] was found to be 64%.

Consider `[N-]=[N+]=NCCOCCOCCNC(=O)c1ccc(Nc2nc(NCCOCCOCCNC(=O)c3ccccc3)nc(NCc3ccccc3)n2)cc1` [T14A], for which the inhibition at 5 µM in series [2] amounted to 56%.

On to `[N-]=[N+]=NCCOCCOCCNC(=O)c1ccc(Nc2nc(NCCOCCOCCNC(=O)c3ccccc3)nc(NCCc3ccc(F)cc3)n2)cc1` [T18A], for which the inhibition at 5 µM in series [2] turned out to be 76%.

On to `[N-]=[N+]=NCCOCCOCCNC(=O)c1ccc(Nc2nc(NCCCc3ccccc3)nc(NCCOCCOCCNC(=O)c3ccccc3)n2)cc1` [T21A], for which the inhibition at 5 µM in series [2] was determined as 72%.

Take `[N-]=[N+]=NCCOCCOCCNC(=O)c1ccc(Nc2nc(NCCCCc3ccccc3)nc(NCCOCCOCCNC(=O)c3ccccc3)n2)cc1` [T22A]: in series [2], the inhibition at 5 µM is 72%.

For `[N-]=[N+]=NCCOCCOCCNC(=O)c1ccc(Nc2nc(NCCOCCOCCNC(=O)c3ccccc3)nc(Nc3ccc(F)cc3)n2)cc1` [T25A], the inhibition at 5 µM in series [2] came to 82%. In series [2] (Table 2), this compound came in with an inhibition constant (Ki) of 3.9 µM.

Regarding `[N-]=[N+]=NCCOCCOCCNC(=O)c1ccc(Nc2nc(NCCOCCOCCNC(=O)c3ccccc3)nc(Nc3ccccc3)n2)cc1` [T28A], the inhibition at 5 µM in series [2] is 84%. Moreover, in series [2] (Table 2), the Ki was 3.6 µM.

In the case of `[N-]=[N+]=NCCOCCOCCNC(=O)c1ccc(Nc2nc(NCCOCCOCCNC(=O)c3ccccc3)nc(NCCc3ccccc3)n2)cc1` [T34], the Ki in series [2] (0 min pre-incubation, separate experiments) turned out to be 1.22 µM; in series [2] (10 min pre-incubation), 1.63 µM; in series [2] (20 min pre-incubation), 1.41 µM; in series [2] (setting [3]), 3.7 ± 0.2 µM; in series [2] (Table 2), 3.7 µM; in series [2] (double-reciprocal plots, PGE2 varied at 0, 3, 6 μM inhibitor), 3.7 ± 0.2 µM. The “intracellular PGE2 after addition of inhibitor at peak level” value in series [2] (25 μM added at 9 minutes) is on record as “rapid depletion of intracellular PGE2”. In series [2] (25 μM added at peak (9 minutes)), the “time for intracellular PGE2 to fall to baseline” value is not above 5 min. In addition, in series [2] (25 μM, added at the beginning of uptake, listed as TGBz T34), the “inhibition of PGE2 transport by PGT” value is on record as “overshoot phenomenon completely disappeared; also recorded: full inhibition”. In addition, the inhibition at 5 µM in series [2] is 84%. In series [2] (double reciprocal analysis), the mode of inhibition entry is recorded as “competitive inhibitor”.

`[N-]=[N+]=NCCOCCOCCNC(=O)c1ccc(Nc2nc(NCCOCCOCCNC(=O)c3ccccc3)nc(NCCc3ccc(O)cc3)n2)cc1` [T41]: the inhibition at 5 µM in series [2] is 65%. The Ki in series [2] (setting [3]) worked out at 6.2 ± 0.7 µM; in series [2] (Table 2), 6.2 µM.
